Earlier results in patent US20090186834A1, “DIPHENYLHETEROCYCLE CHOLESTEROL ABSORPTION INHIBITORS” (MICROBIA, INC., priority 2005, published 2009).

Legend:
[1] = test system: fat-SOluble vitamin absorption; details: in humans
[2] = test system: absorption of taurocholic acid; details: in vivo

Which results are given for `O=C1[C@H](CC[C@H](O)c2ccc(F)cc2)[C@@H](c2ccc(O)cc2)N1c1ccc(F)cc1` [ezetimibe, (3R,4S)-1-(4-fluorophenyl)-3-[(3S)-3-(4-fluorophenyl)-3-hydroxypropyl]-4-(4-hydroxyphenyl)azetidin-2-one]?
effect on fat-SOluble vitamin absorption [1]: does not appear to affect; inhibition of the absorption of taurocholic acid [2]: does not inhibit
